Results taken from the NIST ThermoML archive (doi:10.1016/j.jct.2016.08.006).

Assay: molar heat capacity at constant pressure; xn = mol fraction of the nth substance listed
Conditions: 101.3 kPa, Liquid, Small sample (50 mg) DSC

CNCCN(C)C [N,N,N'-trimethylethylenediamine] + O
molar heat capacity at constant pressure [J/K/mol]
Conditions	x1 = 0.1	x1 = 0.3	x1 = 0.5	x1 = 0.7	x1 = 0.9	x1 = 1
303.2 K	105.2	151	188.5	217.4	245.2	258.3
308.2 K	105.5	152.4	190.1	219.1	246.8	260
313.2 K	106.1	154	192.1	221.2	249.3	262.7
318.2 K	106.5	155.6	193.9	223.1	251.7	265.3
323.2 K	107.3	157.8	196.1	226	255.5	269.2
328.2 K	107.6	159.5	198.2	228.5	258.7	272.7
333.2 K	108.1	161.4	200.2	231	261.8	276
338.2 K	108.5	162.7	201.9	233.3	264.4	278.9
343.2 K	109	163.8	203.3	235.3	267.3	281.3
348.2 K	109.4	164.8	204.4	237.5	270.2	283.4
353.2 K	110.3	166.2	206.3	239.8	273.1	286.6
